This is an account of results in paper PMC9162962 (European Journal of Medicinal Chemistry, 2022).

For this assay, the target named is SARS-CoV-2 M^pro (Severe acute respiratory syndrome coronavirus 2, UniProt P0DTD1). The assay is classed as biochemical.

The structures appear in SMILES notation.

For the compound `NC(=S)N/N=C/c1ccc(-c2ccc(C(=O)O)c(O)c2)o1` [F8–B6, (E)-4-(5-((2-carbamothioylhydrazono)methyl)furan-2-yl)-2-hydroxybenzoic acid], the “Effect of dithiothreitol (DTT) on inhibition” value is given as “reverse the inhibitory effect”.
